Results reported in PubChem BioAssay (NCI).
“And” between values parts separate entries of the source, which are not always exact repeats. Identical values can stand only once.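 Exposure lasted 48 hours, with cells grown in 96-well plates and compounds tested at five concentrations. GI50 is the concentration that inhibits growth by half. TGI: concentration producing complete growth inhibition.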 *1 amine or outer side, *2 acyl side, *3 side chain or, on linkers, in order; H or OH if unused. Where a SMILES comes first, the peptide text is derived from it. CO = O=C([*:1])[*:2]

How the values were obtained:
Assay in all cases: inhibition of tumour cell growth, NCI panel, 48 h
EKVX NSCLC = system: EKVX NSCLC
KM12 colon = system: KM12 colon
MALME-3M melanoma = system: MALME-3M melanoma
MDA-MB-435 = system: MDA-MB-435
OVCAR-8 ovarian = system: OVCAR-8 ovarian
PC-3 prostate = system: PC-3 prostate
SK-MEL-2 melanoma = system: SK-MEL-2 melanoma
SK-OV-3 ovarian = system: SK-OV-3 ovarian
SNB-75 CNS = system: SNB-75 CNS
UACC-62 melanoma = system: UACC-62 melanoma

Row | Compound | GI50 (EKVX NSCLC) [µM] | TGI (EKVX NSCLC) [µM] | GI50 (KM12 colon) | TGI (KM12 colon) | GI50 (MALME-3M melanoma) | TGI (MALME-3M melanoma) | GI50 (MDA-MB-435) [nM] | TGI (MDA-MB-435) [µM] | GI50 (OVCAR-8 ovarian) | TGI (OVCAR-8 ovarian) | GI50 (PC-3 prostate) | TGI (PC-3 prostate) | GI50 (SK-MEL-2 melanoma) [nM] | TGI (SK-MEL-2 melanoma) [µM] | GI50 (SK-OV-3 ovarian) | TGI (SK-OV-3 ovarian) | GI50 (SNB-75 CNS) [nM] | TGI (SNB-75 CNS) [µM] | GI50 (UACC-62 melanoma) | TGI (UACC-62 melanoma)
1 | Cc1cc(S(=O)(=O)/N=C(\N)n2nc(C)c(C)c2C)c(SCc2ccccc2)cc1Cl | 5.38 | > 100 | 9470 nM | > 100 µM | > 100 µM | > 100 µM | 3230 | > 100 | > 100000 nM | > 100 µM | 6040 nM | > 100 µM | > 100000 | > 100 | > 100 µM | > 100 µM | > 100000 | > 100 | > 100000 nM | > 100 µM
2 | COc1ccc(/C(Cl)=C(\C=O)c2cc(OC)c(OC)c(OC)c2)cc1OC |  | > 100 |  | 73.8 µM |  | > 92.6 µM |  | > 100 |  | > 63.5 µM |  | > 100 µM |  | > 90.5 |  | > 100 µM |  | > 28.1 |  | > 100 µM
3 | Nc1c(C(=O)Nc2cccc3ccccc23)sc2nc3c(cc12)CCCCC3 | 1.35 | > 50 | 760 nM | > 50 µM | 31.9 µM | > 50 µM | 116 | 0.32 | 1680 nM | > 50 µM | 1070 nM | > 50 µM | > 50000 | > 50 | 1.47 µM | > 50 µM | 161 | > 50 | 219 nM | > 50 µM
4 | CNC(=O)c1ccc(Nc2nc(OC3CCCC3)c3c(-c4ccc5nc(C)oc5c4)c[nH]c3n2)c(OC)c1 | > 100 | > 100 | 9470 nM | > 100 µM | 21.6 µM | > 100 µM | > 100000 | > 100 | 600 nM | > 100 µM | 3570 nM | > 100 µM | > 51300 | > 100 |  | > 100 µM | 474 | > 100 | 2580 nM | > 100 µM
5 | O=S(=O)(NCCNc1cc(-c2cn(-c3ccccc3)nc2-c2cccc(O)c2)ccn1)c1ccc(F)cc1 | 2.59 | 20.3 | 2340 nM | 8.26 µM | 1.73 µM | 3.88 µM | 2300 | 7.2 | 3070 nM | 14.1 µM | 2290 nM | 10.3 µM | 1920 | 4.32 | 2.85 µM | 12.3 µM | 2830 | 16.5 | 1990 nM | 4.73 µM
6 | COc1ccc2c(c1)C(=O)c1c-2c(N2CCN(C(=O)CN(C)C)CC2)nc2ccccc12 | 17.7 | 41.5 | 25400 nM | 83.1 µM | 23 µM | 58.1 µM | 30200 | 98 | 24700 nM | > 100 µM | 14400 nM | 31.5 µM | 18400 | 39 | 19.6 µM | > 100 µM | 11800 | 27.7 | 15300 nM | 37.3 µM
7 | Nc1ccn(C2OC(COP(=O)(O)O)C(O)C2O)c(=O)n1 (stereo not given) |  | > 100 |  | > 100 µM |  | > 100 µM |  | > 100 |  | > 100 µM |  | > 100 µM |  | > 100 |  | > 100 µM |  | > 100 |  | > 71.3 µM
8 | COc1ccc(C(=O)c2ccc(OC)cc2OC)cc1 | 7.17 | > 100 | 2220 nM | 24.7 µM | 5.83 µM | > 100 µM | 361 | 2.34 | 4550 nM | > 100 µM | 4380 nM | > 100 µM | 2890 | 12.2 | 2.66 µM | 8.81 µM | 1760 | 5.57 | 5670 nM | > 100 µM
9 | CCOC(=O)c1ccc2[nH]c(Cc3[nH]c4ccc(C(=O)OCC)cc4c3C)c(C)c2c1 | 5.09 | 26.4 | 1510 nM | 20.7 µM | 3.73 µM | 17.7 µM | 3530 | 48.8 | 1210 nM | 11.7 µM | 1460 nM | 13.7 µM | 14100 | 40.5 | 2.04 µM | 16.6 µM | 4200 | 23.4 | 2210 nM | 25.2 µM
10 | Cc1cccc(Oc2ccc(Nc3ncnc4ccc(NC(=O)CN5CCN(C)CC5)cc34)cc2Cl)c1 | 1.12 | 2.64 | 1740 nM | 3.24 µM | 1.59 µM | 3.16 µM | 1590 | 2.99 | 2110 nM | 5.68 µM | 1780 nM | 3.52 µM | 1870 | 3.64 |  |  | 1440 | 2.81 | 1840 nM | 3.56 µM
11 | C=C1C(=O)O[C@H]2[C@H]1CC/C(Cn1cc(Cn3ccc4cc(Cl)ccc43)nn1)=C\CC[C@@]1(C)O[C@@H]21 | 1.73 | 3.78 | 2010 nM | 4.24 µM | 1.58 µM | 3.13 µM | 1560 | 2.98 | 1660 nM | 3.57 µM | 1300 nM | 2.87 µM | 1610 | 3.72 | 13.9 µM | 26.9 µM | 1270 | 4.52 | 1410 nM | 2.78 µM
12 | Nc1nc(F)nc2c1ncn2C1OC(COP(=O)(O)O)C(O)C1O (stereo not given) |  | 406 |  | 900 µM |  | 254 µM |  | 218 |  | 196 µM |  | 322 µM |  | 151 |  | 292 µM |  | 713 |  | 247 µM
13 | CC(C)C(NC(=O)C(CCCN=C(N)N)NC(=O)NC(Cc1ccccc1)C(=O)O)C(=O)NC(C=O)CCCN=C(N)N (stereo not drawn) ({Phe-CO}-Arg-Val-Arg-aldehyde; configuration not given here) | > 5 | > 5 | > 5000 nM | > 5 µM | > 5 µM | > 5 µM | > 5000 | > 5 | > 5000 nM | > 5 µM | > 5000 nM | > 5 µM | > 5000 | > 5 | > 5 µM | > 5 µM | > 5000 | > 5 | > 5000 nM | > 5 µM
14 | C=C1C(=O)O[C@H]2[C@H]1CC/C(COC(=O)N[C@@H](Cc1c[nH]c3ccccc13)C(=O)OC)=C\CC[C@@]1(C)O[C@@H]21 | 1.78 | 4.43 | 4110 nM | 15.6 µM | 1.51 µM | 3.07 µM | 1490 | 3.25 | 2620 nM | 10.3 µM | 1450 nM | 3.41 µM | 2210 | 6.06 | 12 µM | 24.6 µM | 4450 | 19.3 | 1380 nM | 2.84 µM
15 | CCSc1nc(=S)[nH]c2[nH]ncc12 | 54.1 | > 100 | 86500 nM | > 100 µM | > 100 µM | > 100 µM | 63100 | > 100 | > 100000 nM | > 100 µM | > 100000 nM | > 100 µM | > 100000 | > 100 | 78.9 µM | > 100 µM | > 100000 | > 100 | 66300 nM | > 100 µM
16 | CN(C)c1ccc2[nH]c(O)c(C=Nc3ccc(S(N)(=O)=O)cc3)c2c1 | > 25 | > 25 | 1150 nM | > 25 µM | > 25 µM | > 25 µM | > 25000 | > 25 | > 25000 nM | > 25 µM | > 25000 nM | > 25 µM | > 25000 | > 25 | > 25 µM | > 25 µM | > 25000 | > 25 | > 25000 nM | > 25 µM
17 | O=C1C=CC(=O)N1c1ccc2c(c1)Cc1cc(NC(=O)C(F)(F)F)ccc1-2 |  | 29.3 |  | 40.6 µM |  | 40.1 µM |  | 31.5 |  | 34.6 µM |  | 33.1 µM |  | 34.2 |  | > 100 µM |  | 31.3 |  | 30.7 µM
18 | Cc1cc(Nc2ncc(Cl)c(Nc3ccccc3S(=O)(=O)C(C)C)n2)c(OC(C)C)cc1C1CCNCC1 | 1.14 | 2.71 | 1490 nM and 911 nM | 3.11 µM and 2.1 µM | 0.857 µM and 0.265 µM | 2.25 µM and 1.25 µM | 944 | 2.16 | 1740 nM and 1410 nM | 3.59 µM and 4.23 µM | 1420 nM and 793 nM | 2.92 µM and 2.07 µM | 1470 | 3.06 | 2.02 µM and 1.67 µM | 4.39 µM and 3.03 µM | 1200 | 2.44 | 1490 nM and 1170 nM | 2.84 µM and 2.43 µM
19 | O=C(/C=C/c1ccc2c(c1)OCO2)c1ccccc1 | 15.1 | 31.1 | 3020 nM | 14 µM | 13.9 µM | 37.9 µM | 3580 | 19.3 | 17400 nM | 58.5 µM | 22500 nM | 58.4 µM |  |  | 27.5 µM | 83.1 µM | 20600 | 61.9 | 16300 nM | 33.7 µM
